Data from article PMC11275008, “Anti-Inflammatory and Cancer-Preventive Potential of Chamomile (Matricaria chamomilla L.): A Comprehensive In Silico and In Vitro Study” (Biomedicines, 2024).

Target: T1, NF-κB (recombinant human NF-κB; docking used NF-κB p65-RelA) (Homo sapiens, UniProt Q04206)
T1 construct: commercial recombinant protein (Sino Biological); labelled with RED-NHS 2nd generation dye on lysines
Assay: microscale thermophoresis
Type: binding

T1 sequence (Q04206 whole entry): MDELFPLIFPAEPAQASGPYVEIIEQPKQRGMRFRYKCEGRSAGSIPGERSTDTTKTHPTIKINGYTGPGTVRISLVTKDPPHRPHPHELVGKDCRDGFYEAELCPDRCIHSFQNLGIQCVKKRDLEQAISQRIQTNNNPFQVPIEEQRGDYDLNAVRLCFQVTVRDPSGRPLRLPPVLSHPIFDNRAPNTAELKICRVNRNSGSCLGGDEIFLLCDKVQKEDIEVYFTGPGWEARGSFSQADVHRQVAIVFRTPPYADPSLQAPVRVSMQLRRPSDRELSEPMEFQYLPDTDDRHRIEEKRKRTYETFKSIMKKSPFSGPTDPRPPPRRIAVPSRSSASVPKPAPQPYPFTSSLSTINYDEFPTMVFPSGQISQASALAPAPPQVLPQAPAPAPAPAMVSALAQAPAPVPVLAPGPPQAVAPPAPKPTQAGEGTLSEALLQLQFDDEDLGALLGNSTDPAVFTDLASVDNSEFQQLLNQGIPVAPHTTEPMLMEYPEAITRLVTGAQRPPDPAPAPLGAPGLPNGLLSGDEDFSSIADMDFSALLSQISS

Structure (SMILES): CC1(C)CC[C@]2(C)CC[C@]3(C)C(=CC[C@@H]4[C@@]5(C)CC[C@H](O)C(C)(C)[C@@H]5CC[C@]43C)[C@@H]2C1 [β-amyrin]
- Kd: 943 ± 113 nM
